According to PubChem BioAssay (NCI):
Where “and” joins values, the source holds several entries; their conditions need not be identical. Identical values can stand only once.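 Protocol summary: plate cells (96-well), add compound at 5 concentrations, incubate 48 h, interpolate endpoints linearly. At the GI50, growth is halved. TGI is the concentration that stops growth completely.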

What was measured:
Experiment in all cases: inhibition of tumour cell growth, NCI panel, 48 h
A549 NSCLC = test system: A549 NSCLC
BT-549 breast = test system: BT-549 breast
HOP-62 NSCLC = test system: HOP-62 NSCLC
HOP-92 NSCLC = test system: HOP-92 NSCLC
MDA-MB-435 = test system: MDA-MB-435
MOLT-4 leukemia = test system: MOLT-4 leukemia
SN12C renal = test system: SN12C renal
T-47D breast = test system: T-47D breast
TK-10 renal = test system: TK-10 renal
U251 CNS = test system: U251 CNS

Compound	GI50 (A549 NSCLC)	TGI (A549 NSCLC)	GI50 (BT-549 breast)	TGI (BT-549 breast)	GI50 (HOP-62 NSCLC)	TGI (HOP-62 NSCLC)	GI50 (HOP-92 NSCLC)	TGI (HOP-92 NSCLC)	GI50 (MDA-MB-435)	TGI (MDA-MB-435)	GI50 (MOLT-4 leukemia)	TGI (MOLT-4 leukemia)	GI50 (SN12C renal)	TGI (SN12C renal)	GI50 (T-47D breast)	TGI (T-47D breast)	GI50 (TK-10 renal)	TGI (TK-10 renal)	GI50 (U251 CNS)	TGI (U251 CNS)
COc1ccc(Cl)cc1Nc1nc(C(F)(F)F)ccc1C(=O)N/N=C/c1ccc(Cl)cc1	37.7 µM	> 100 µM	0.108 µM	0.932 µM	3.51 µM	24 µM	11.4 µM	67.2 µM	> 100 µM	> 100 µM	1.76 µM	11.1 µM	8.67 µM	> 100 µM	0.971 µM	> 100 µM	0.513 µM	16.8 µM	4.79 µM	69.3 µM
CC(C)c1nc(Cl)c(Cl)c(Cl)n1	–	> 41.3 µM	–	27.1 µM	–	25.9 µM	–	14.2 µM	–	17.2 µM	–	11.4 µM	–	16.9 µM	–	42.7 µM	–	28.8 µM	–	12.8 µM
COc1cc2c(cc1OCCCN1CCN(CCCn3c4ccccc4c4ccccc43)CC1)N=C[C@@H]1CCCN1C2=O	0.294 µM	1.28 µM	0.0587 µM	0.288 µM	0.242 µM	2.46 µM	0.0283 µM	0.173 µM	0.0553 µM	0.121 µM	0.044 µM	0.257 µM	0.243 µM	1.51 µM	0.206 µM	0.868 µM	0.086 µM	1.07 µM	0.0985 µM	1.2 µM
CC(C)(CCc1nc2ccccc2[nH]1)C(=O)O	–	> 100 µM	–	> 100 µM	–	> 100 µM	–	> 100 µM	–	> 100 µM	–	> 100 µM	–	> 100 µM	–	> 100 µM	–	> 100 µM	–	> 100 µM
O=C1OC(c2ccccc2)=N/C1=C\c1ccc(N(CCCl)CCCl)cc1	–	> 100 µM	–	> 100 µM	–	> 100 µM	–	> 84.6 µM	–	> 100 µM	–	> 79.9 µM	–	> 100 µM	–	> 84.8 µM	–	> 100 µM	–	> 100 µM
O=C(COC(=O)[C@H](C[Se][Se]C[C@H](NC(=O)c1ccc(Br)cc1F)C(=O)OCC(=O)c1ccc(F)cc1)NC(=O)c1ccc(Br)cc1F)c1ccc(F)cc1	1.03 µM	4.45 µM	0.603 µM	1.31 µM	0.654 µM	2.24 µM	2.73 µM	6.66 µM	1.89 µM	4.3 µM	3.54 µM	71.3 µM	1.27 µM	2.98 µM	1.41 µM	4.08 µM	0.341 µM	0.9 µM	0.696 µM	1.92 µM
CCC(=C(c1ccc(OCCN(CC)CC)cc1)c1ccc(OCCN(CC)CC)cc1)c1ccc(Cl)cc1	0.638 µM	1.31 µM	0.647 µM	1.45 µM	0.598 µM	1.28 µM	0.5 µM	1.18 µM	0.578 µM	1.07 µM	0.583 µM	1.3 µM	0.606 µM	1.24 µM	0.574 µM	1.39 µM	0.528 µM	1.1 µM	0.57 µM	1.14 µM
c1csc(-c2[nH]nc3c2CCc2ccccc2-3)c1	13 µM	55.4 µM	16.1 µM	31.9 µM	12.8 µM	28.7 µM	1.88 µM	20.4 µM	19.2 µM	42.6 µM	14.9 µM	53.8 µM	14.8 µM	30.2 µM	0.17 µM	0.515 µM	0.862 µM	61.6 µM	11.6 µM	26.3 µM
C/C(=N\NC(=O)c1ccncc1)c1ccccc1O	3.86 µM	> 100 µM	3.79 µM	84.7 µM	3.82 µM	> 100 µM	2.27 µM	> 100 µM	6.37 µM	> 100 µM	2.35 µM	> 100 µM	4.79 µM	> 100 µM	2.24 µM	> 100 µM	3.03 µM	> 100 µM	3.31 µM	> 100 µM
CCn1c(SC)nnc1-c1cc2c([nH]c3ccccc32)c(-c2cccc(O)c2)n1	3.61 µM	62.9 µM	1.68 µM	6.31 µM	2.87 µM	15.8 µM	1.1 µM	9.08 µM	0.248 µM	0.851 µM	2.05 µM	> 100 µM	4.44 µM	51.4 µM	1.78 µM	22.5 µM	2.68 µM	13.1 µM	2.97 µM	19.1 µM
CC(=O)Nc1ccc(C(=O)NN2C(=O)CSC2c2ccccc2)cc1 (stereo unspecified)	–	> 100 µM	–	83 µM	–	> 100 µM	–	> 100 µM	–	> 100 µM	–	> 100 µM	–	> 100 µM	–	> 100 µM	–	> 100 µM	–	> 100 µM
O=C(NCc1cccnc1)c1ccc([N+](=O)[O-])o1	2.54 µM	7.28 µM	9.77 µM	> 15.1 µM	1.3 µM	4.79 µM	> 17.2 µM	32.2 µM	1.03 µM	4.06 µM	> 20 µM	> 32.5 µM	1.19 µM	4.49 µM	6.9 µM	32.4 µM	3.33 µM	10.4 µM	1.03 µM	3.83 µM
COc1cccc2c(Nc3ccc(C(=O)NCCN4CCNCC4)cc3)cc(-c3ccccc3)nc12	> 100 µM	> 100 µM	35.1 µM	> 100 µM	> 100 µM	> 100 µM	95 µM	> 100 µM	35.9 µM	> 100 µM	30.6 µM	> 100 µM	50.7 µM	> 100 µM	29.4 µM	> 100 µM	57 µM	> 100 µM	34.8 µM	> 100 µM
COc1cc(COC(=O)NC(Cc2cccs2)C(=O)O)c([N+](=O)[O-])cc1OC (stereo unspecified)	–	> 100 µM	–	> 100 µM	–	> 100 µM	–	> 100 µM	–	> 100 µM	–	> 100 µM	–	> 100 µM	–	> 100 µM	–	> 100 µM	–	> 100 µM
Cc1c(N)nc(C2CC(=O)N2CC(N)C(N)=O)nc1C(=O)NC(C(=O)NC(C)C(O)C(C)C(=O)NC(C(=O)NCCc1nc(-c2nc(C(=O)NCCNCC(C)O)cs2)cs1)C(C)O)C(OC1OC(CO)C(O)C(O)C1OC1OC(CO)C(O)C(OC(N)=O)C1O)c1cnc[nH]1 (stereo unspecified)	4.68 µM	50 µM and > 100 µM	–	> 50 µM	0.188 µM	6.25 µM and 0.914 µM	–	9.68 µM	–	36.4 µM	4.23 µM	50 µM and 6.66 µM	5.33 µM	36.4 µM and 27 µM	–	> 5 µM	11.1 µM	50 µM and > 100 µM	2.53 µM	50 µM and 24.2 µM
Cc1cccc(Cc2cnc(NC(=O)CCCOc3ccc(Cl)cc3)s2)c1	3.94 µM	> 100 µM	> 100 µM	> 100 µM	5.57 µM	> 100 µM	34.3 µM	> 100 µM	1.62 µM	4.32 µM	5.72 µM	> 100 µM	5.26 µM	> 100 µM	5.82 µM	> 100 µM	> 100 µM	> 100 µM	4.88 µM	> 100 µM
